# Measured values from PubChem BioAssay (NCI).
#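 Grown in 96-well plates, cells were treated for 48 hours with each compound at five concentrations. Insufficient inhibition: endpoint recorded as highest concentration tested. Here, GI50 denotes the concentration required for 50% inhibition of growth. TGI: total growth inhibition.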
# Tests used:
# Assay in all cases: NCI anticancer screen, dose series, 48 h
# 786-0 renal = test system: 786-0 renal
# A498 renal = test system: A498 renal
# A549 NSCLC = test system: A549 NSCLC
# ACHN renal = test system: ACHN renal
# BT-549 breast = test system: BT-549 breast
# CAKI-1 renal = test system: CAKI-1 renal
# CCRF-CEM leukemia = test system: CCRF-CEM leukemia
# COLO 205 colon = test system: COLO 205 colon
# DU-145 prostate = test system: DU-145 prostate
# EKVX NSCLC = test system: EKVX NSCLC
# HCC-2998 colon = test system: HCC-2998 colon
# HCT-116 colon = test system: HCT-116 colon
# HCT-15 colon = test system: HCT-15 colon
# HL-60(TB) leukemia = test system: HL-60(TB) leukemia
# HOP-62 NSCLC = test system: HOP-62 NSCLC
# HS 578T breast = test system: HS 578T breast
# HT29 colon = test system: HT29 colon
# IGROV1 ovarian = test system: IGROV1 ovarian
# K-562 leukemia = test system: K-562 leukemia
# KM12 colon = test system: KM12 colon
# LOX IMVI melanoma = test system: LOX IMVI melanoma
# M14 melanoma = test system: M14 melanoma
# MALME-3M melanoma = test system: MALME-3M melanoma
# MCF7 breast = test system: MCF7 breast
# MDA-MB-231 breast = test system: MDA-MB-231 breast
# MDA-MB-435 = test system: MDA-MB-435
# MOLT-4 leukemia = test system: MOLT-4 leukemia
# NCI-H226 lung = test system: NCI-H226 lung
# NCI-H23 lung = test system: NCI-H23 lung
# NCI-H460 lung = test system: NCI-H460 lung
# NCI-H522 lung = test system: NCI-H522 lung
# NCI/ADR-RES ovarian = test system: NCI/ADR-RES ovarian
# OVCAR-3 ovarian = test system: OVCAR-3 ovarian
# OVCAR-4 ovarian = test system: OVCAR-4 ovarian
# OVCAR-5 ovarian = test system: OVCAR-5 ovarian
# OVCAR-8 ovarian = test system: OVCAR-8 ovarian
# RPMI-8226 leukemia = test system: RPMI-8226 leukemia
# RXF 393 renal = test system: RXF 393 renal
# SF-268 CNS = test system: SF-268 CNS
# SF-295 CNS = test system: SF-295 CNS
# SF-539 CNS = test system: SF-539 CNS
# SK-MEL-2 melanoma = test system: SK-MEL-2 melanoma
# SK-MEL-28 melanoma = test system: SK-MEL-28 melanoma
# SK-MEL-5 melanoma = test system: SK-MEL-5 melanoma
# SK-OV-3 ovarian = test system: SK-OV-3 ovarian
# SN12C renal = test system: SN12C renal
# SNB-19 CNS = test system: SNB-19 CNS
# SR leukemia = test system: SR leukemia
# SW-620 colon = test system: SW-620 colon
# T-47D breast = test system: T-47D breast
# U251 CNS = test system: U251 CNS
# UACC-62 melanoma = test system: UACC-62 melanoma
# UO-31 renal = test system: UO-31 renal
smiles,measurement,setting,value
O=CN1N=C(c2cccc(Nc3ccnc4cc(Cl)ccc34)c2)CC1c1ccc(Cl)cc1 (stereo unspecified),GI50,786-0 renal,4.73 µM
same,TGI,786-0 renal,> 100 µM
same,GI50,A498 renal,0.832 µM
same,TGI,A498 renal,6.18 µM
same,GI50,A549 NSCLC,0.941 µM
same,TGI,A549 NSCLC,> 100 µM
same,GI50,ACHN renal,5.17 µM
same,TGI,ACHN renal,> 100 µM
same,GI50,BT-549 breast,1.36 µM
same,TGI,BT-549 breast,16.2 µM
same,GI50,CAKI-1 renal,0.954 µM
same,TGI,CAKI-1 renal,> 100 µM
same,GI50,CCRF-CEM leukemia,2.34 µM
same,TGI,CCRF-CEM leukemia,> 100 µM
same,GI50,COLO 205 colon,1.39 µM
same,TGI,COLO 205 colon,6.67 µM
same,GI50,DU-145 prostate,4.17 µM
same,TGI,DU-145 prostate,> 100 µM
same,GI50,EKVX NSCLC,> 100 µM
same,TGI,EKVX NSCLC,> 100 µM
same,GI50,HCC-2998 colon,3.36 µM
same,TGI,HCC-2998 colon,> 100 µM
same,GI50,HCT-116 colon,0.597 µM
same,TGI,HCT-116 colon,5.29 µM
same,GI50,HCT-15 colon,0.903 µM
same,TGI,HCT-15 colon,> 100 µM
same,GI50,HL-60(TB) leukemia,1.1 µM
same,TGI,HL-60(TB) leukemia,3.81 µM
same,GI50,HOP-62 NSCLC,1.91 µM
same,TGI,HOP-62 NSCLC,> 100 µM
same,GI50,HS 578T breast,1.97 µM
same,TGI,HS 578T breast,> 100 µM
same,GI50,HT29 colon,0.477 µM
same,TGI,HT29 colon,3.65 µM
same,GI50,IGROV1 ovarian,0.757 µM
same,TGI,IGROV1 ovarian,> 100 µM
same,GI50,K-562 leukemia,0.413 µM
same,TGI,K-562 leukemia,> 100 µM
same,GI50,KM12 colon,0.591 µM
same,TGI,KM12 colon,> 100 µM
same,GI50,LOX IMVI melanoma,1.56 µM
same,TGI,LOX IMVI melanoma,10.3 µM
same,GI50,M14 melanoma,1.04 µM
same,TGI,M14 melanoma,> 100 µM
same,GI50,MALME-3M melanoma,1.63 µM
same,TGI,MALME-3M melanoma,> 100 µM
same,GI50,MCF7 breast,0.81 µM
same,TGI,MCF7 breast,> 100 µM
same,GI50,MDA-MB-231 breast,2.12 µM
same,TGI,MDA-MB-231 breast,> 100 µM
same,GI50,MDA-MB-435,0.293 µM
same,TGI,MDA-MB-435,24.9 µM
same,GI50,MOLT-4 leukemia,1.92 µM
same,TGI,MOLT-4 leukemia,80.3 µM
same,GI50,NCI-H226 lung,> 100 µM
same,TGI,NCI-H226 lung,> 100 µM
same,GI50,NCI-H23 lung,2.48 µM
same,TGI,NCI-H23 lung,> 100 µM
same,GI50,NCI-H460 lung,0.787 µM
same,TGI,NCI-H460 lung,> 100 µM
same,GI50,NCI-H522 lung,0.798 µM
same,TGI,NCI-H522 lung,70.1 µM
same,GI50,NCI/ADR-RES ovarian,0.759 µM
same,TGI,NCI/ADR-RES ovarian,3.94 µM
same,GI50,OVCAR-3 ovarian,1.2 µM
same,TGI,OVCAR-3 ovarian,7.71 µM
same,GI50,OVCAR-4 ovarian,4.13 µM
same,TGI,OVCAR-4 ovarian,> 100 µM
same,GI50,OVCAR-5 ovarian,> 100 µM
same,TGI,OVCAR-5 ovarian,> 100 µM
same,GI50,OVCAR-8 ovarian,3.8 µM
same,TGI,OVCAR-8 ovarian,> 100 µM
same,GI50,RPMI-8226 leukemia,2.45 µM
same,TGI,RPMI-8226 leukemia,> 100 µM
same,GI50,RXF 393 renal,3.08 µM
same,TGI,RXF 393 renal,> 100 µM
same,GI50,SF-268 CNS,4.37 µM
same,TGI,SF-268 CNS,> 100 µM
same,GI50,SF-295 CNS,1.06 µM
same,TGI,SF-295 CNS,8.12 µM
same,GI50,SF-539 CNS,3.78 µM
same,TGI,SF-539 CNS,69.5 µM
same,GI50,SK-MEL-2 melanoma,2.05 µM
same,TGI,SK-MEL-2 melanoma,> 100 µM
same,GI50,SK-MEL-28 melanoma,5.63 µM
same,TGI,SK-MEL-28 melanoma,> 100 µM
same,GI50,SK-MEL-5 melanoma,1.86 µM
same,TGI,SK-MEL-5 melanoma,10.6 µM
same,GI50,SK-OV-3 ovarian,3.48 µM
same,TGI,SK-OV-3 ovarian,56.9 µM
same,GI50,SN12C renal,3.86 µM
same,TGI,SN12C renal,> 100 µM
same,GI50,SNB-19 CNS,3.48 µM
same,TGI,SNB-19 CNS,> 100 µM
same,GI50,SR leukemia,0.367 µM
same,TGI,SR leukemia,2.13 µM
same,GI50,SW-620 colon,0.557 µM
same,TGI,SW-620 colon,> 100 µM
same,GI50,T-47D breast,2.63 µM
same,TGI,T-47D breast,> 100 µM
same,GI50,U251 CNS,1.29 µM
same,TGI,U251 CNS,20.7 µM
same,GI50,UACC-62 melanoma,1.63 µM
same,TGI,UACC-62 melanoma,> 100 µM
same,GI50,UO-31 renal,0.878 µM
same,TGI,UO-31 renal,> 100 µM
